Results published in patent US20240199676A1, “ANTIVIRAL COMPOUNDS AND METHODS OF MAKING AND USING THE SAME” (Gilead Sciences, Inc., priority 2022, published 2024).

Tests used:
[1] = GI S9 stability (Ex. Z), dog intestinal S9; type: in vitro ADME; details: pooled intestinal S9 fractions; dog intestinal S9, 1.0 mg/mL protein, 2 μM substrate, pH 7.4; read-out: GIS9 DOG T½ (per Ex. Z)
Protocol: (§1) Example Z: GI S9 stability data:
(§2) Stock solutions of test compounds in dimethyl sulfoxide (DMSO) having a final concentration of 10 mM were prepared and used in all experiments. Sekisui XenoTech (Kansas City, KS) provided pooled intestinal S9 fractions. All other chemicals were purchased from Sigma-Aldrich (St. Louis, MO) or VWR (West Chester, PA). Internal Standard/Quench (IS/Q) used to stop reactions was 100 nM labetalol in (by volume) methanol (10%) and acetonitrile (90%).
(§3) Stability in Intestinal S9 Fractions: Duplicate aliquots of test compound or positive control substrate were added to S9 stock diluted with phosphate buffered saline (137 mM NaCl, 2.7 mM KCl, 10 mM phosphate buffer), pH 7.4, to obtain a protein concentration of 1.0 mg/mL. The metabolic reactions were initiated by the addition of the substrates to the S9 reaction mixture to a final concentration of 2 μM. At 0, 10, 20, 30, 60 and 120 min, 25 μL aliquots of the reaction mixture were transferred to plates containing 225 μl of IS/Q solution. After quenching, the plates were centrifuged at 3000×g for 30 minutes. 150 μL aliquots of each supernatant were dried down then reconstituted with 300 μL water. Aliquots (10 μL) of the prepared samples were analyzed on a Thermo Q-Exactive mass spectrometer as described below.
(§4) Liquid Chromatography—Mass Spectrometry: Quantification of test compounds and control substrate was performed by analyte/internal standard peak area ratio (PAR) values measured on a Thermo Q-Exactive mass spectrometer coupled to a Dionex UltiMate 3000 HPLC with a Leap Technologies HTC PAL autosampler. The column used for analysis was a Waters Acquity BEH C18 (1.7 μm particle size, 2.1×50 mm). Mobile phase A consisted of 0.1% (v/v) formic acid in water. Mobile phase B consisted of 0.1% (v/v) formic acid in acetonitrile. Elution of analytes was achieved by a series of linear gradients varying the proportions of A and B. The mass spectrometer was calibrated on a weekly basis and mass tolerance of 5 ppm was used.
(§5) Metabolic stabilities in S9 fractions were determined by measuring the rates of disappearance of test compound and positive control substrate.
(§6) Data (% of substrate remaining) were plotted on a semi-log scale and fitted using an exponential decline model:
(§7) Where Ct—% of substrate remaining at time=t; C0—% of substrate remaining at time=0; t—time; T½—half-life The Half-life (T½) is determined by the following equation: […]
(§8) Assuming a first-order reaction, the slope (k) is extrapolated from the aforementioned plotted data.

[2] = GI S9 stability (Ex. Z), cyno intestinal S9; type: in vitro ADME; details: cynomolgus monkey, pooled intestinal S9 fractions; cyno intestinal S9, 1.0 mg/mL protein, 2 μM substrate, pH 7.4; read-out: GIS9 Cyno T½ (per Ex. Z)
Protocol: as §1, §2, §3, §4, §5, §6, §7, §8

[3] = system: Respiratory syncytial virus recombinant with luciferase (RSV-Luc5) in NHBE cells; assay: NHBE RSV-Luc5 384-well Assay (RSV FLUC NHBE 384 V2, Ex. W); type: cell-based; details: human respiratory syncytial virus, 72 h, read-out: EC50 RSV FLUC NHBE 384 V2 (per Ex. W)
Text: Example W: NHBE RSV-Luc5 384-well Assay (EC50 RSVFLUC NHBE-384)
Normal Human Bronchial Epithelial (NHBE) cells were purchased from Lonza (Walkersville, MD Cat #CC2540) and maintained in BEGM Bronchial Epithelial Cell Growth Medium BulletKit (Lonza CC-3170).
Cells were thawed, expanded, and were used for experiments at passage 2. Respiratory syncytial virus recombinant with luciferase (RSV-Luc5) (≥1×10^7 Infectious Units/mL (IU/mL) determined by TCID50) was purchased from Microbiologics (Saint Cloud, MN). Viral replication was determined in NHBE cells in the following manner.
(§9) Compounds are prepared in 100% DMSO in 384-well polypropylene plates (Greiner, Monroe, NC, Cat #784201) with 8 compounds per plate in grouped replicates of 4 at 10 serially diluted concentrations (1:3). The serially diluted compounds were transferred to low dead volume Echo plates (Labcyte, Sunnyvale, CA, Cat #LP-0200).
The test compounds were spotted to 384-well assay plates (Greiner, Monroe, NC, Cat#781091) at 200 nL per well using an Echo acoustic dispenser (Labcyte, Sunnyvale, CA). NHBE cells were harvested and suspended in BEGM Bronchial Epithelial Cell Growth Medium BulletKit and seeded to the pre-spotted assay plates at 5,000 cells per well in 30 μL. RSV-Luc5 virus was diluted in BEGM Bronchial Epithelial Cell Growth Medium BulletKit at 500,000 Infectious Units (IU) per mL and 10 μL per well was added to the assay plates containing cells and compounds, for an MOI of 1. The assay plates were incubated for 3 days at 37° C. and 5% CO2. At the end of incubation, One-Glo reagent (Promega, Madison, WI, Cat #E6120) was prepared. The assay plates and One-Glo reagent were equilibrated to room temperature for at least 15 minutes. 40 μL per well of One-Glo reagent was added and the plates were incubated at room temperature for 15 minutes before reading the luminescence signal on an EnVision multimode plate reader (Perkin Elmer, Waltham, MA). Remdesivir was used as positive control and DMSO was used as negative control. Values were normalized to the positive and negative controls (as 0% and 100% replication, respectively) and data was fitted using non-linear regression analysis by Gilead's dose response tool. The EC50 value for each compound was defined as the concentration reducing the viral replication by 50%.

[4] = GI S9 stability (Ex. Z), rat intestinal S9; type: in vitro ADME; details: pooled intestinal S9 fractions; rat intestinal S9, 1.0 mg/mL protein, 2 μM substrate, pH 7.4; read-out: GIS9 Rat T½ (per Ex. Z)
Protocol: as §1, §2, §3, §4, §5, §6, §7, §8

[5] = system: Respiratory syncytial virus recombinant with luciferase (RSV-Luc5) in HEp-2 cells; assay: HEp-2 RSV-Luc5 384-well Assay (EC50 RSVFLUC Hep2-384 v2, Ex. V); type: cell-based; details: human respiratory syncytial virus, HEp-2, 72 h, read-out: EC50 RSV FLuc Hep-2 384 V2 (per Ex. V)
Text: Example V: HEp-2 RSV-Luc5 384-well Assay (EC50 RSVFLUC Hep2-384 v2)
HEp-2 cell line was purchased from ATCC (Manassas, VA Cat #CCL-23) and maintained in Dulbecco's […] (DMEM) (Corning, New York, NY, Cat #15-018CM) supplemented with 10% fetal bovine serum (FBS) (Hyclone, Logan, UT, Cat #SH30071-03) and 1× Penicillin-Streptonycin-L-Glutamine (Corning, New York, NY, Cat #30-009-CI). Cells were passaged 2 times per week to maintain sub-confluent densities and were used for experiments at passage 5-20. Respiratory syncytial virus recombinant with luciferase (RSV-Luc5) (≥1 ×107 TCID50/ml) was purchased from Microbiologics (Saint Cloud, MN). Viral replication was determined in HEp-2 cells in the following manner.
as §9
The test compounds were spotted to 384-well assay plates (Greiner, Monroe, NC, Cat#781091) at 200 nL per well. HEp-2 cells were harvested and suspended in DMEM (supplemented with 10% FBS and 1× Penicillin-Streptonycin-L-Glutamine) and seeded to the pre-spotted assay plates at 4,000 cells per well in 30 μL. RSV-Luc5 viruses were diluted in DMEM (supplemented with 10% FBS and 1× Penicillin-Streptomycin-L-Glutamine) at 200,000 Infectious Units (IU) per mL and 10 μL per well was added to the assay plates containing cells and compounds, for an MOI=0.5. The assay plates were incubated for 3 days at 37° C. and 5% CO2. At the end of incubation, One-Glo reagent (Promega, Madison, WI, Cat #E6120) was prepared. The assay plates and One-Glo reagent were equilibrated to room temperature for at least 15 minutes. 40 μL per well of One-Glo reagent was added and the plates were incubated at room temp for 15 minutes before reading the luminescence signal on an EnVision multimode plate reader (Perkin Elmer, Waltham, MA). Remdesivir was used as positive control and DMSO was used as negative control. Values were normalized to the positive and negative controls (as 0% and 100% replication, respectively) and data was fitted using non-linear regression analysis by Gilead's dose response tool. The EC50 value for each compound was then determined as the concentration reducing the viral replication by 50%.

Compound | half-life at 2 μM [1] | half-life at 2 μM [2] | EC50 [3] | half-life at 2 μM [4] | EC50 [5]
CC(C)C(=O)Nc1ncnn2c([C@@H]3O[C@](C#N)(COC(=O)C(C)C)[C@@H](OC(=O)C(C)C)[C@H]3OC(=O)C(C)C)ccc12 [Compound 21, (2R,3S,4S,5S)-2-cyano-5-(4-isobutyramidopyrrolo[2,1-f][1,2,4]triazin-7-yl)-2-((isobutyryloxy)methyl)tetrahydrofuran-3,4-diyl bis(2-methylpropanoate)] | 5 min | 4 min | 9.08 µM | 1 min | –
CC(=O)Nc1ncnn2c([C@@H]3O[C@](C#N)(COC(C)=O)[C@@H](O)[C@H]3O)ccc12 [Compound 31] | – | – | 50 µM | – | 50 µM
